Measurements reported in patent publication US8338434B2, “Inhibitors of Akt activity” (GlaxoSmithKline LLC, priority 2007, dated 2012).

Target: T1, full length AKT1 (Homo sapiens, UniProt P31749)
T1 construct: His tag (from vector pFastBacHTb; purified on Nickel Sepharose) (N); made in house; host or cells: baculovirus; Sf9 / T. ni insect cells
Assay: Full-Length AKT Enzyme Assay (substrate phosphorylation, SPA)
Format: biochemical
Settings: in at least one experimental run; pIC50 = -log(IC50), IC50 in molar units; 10 nM activated AKT enzyme, 4 uM ATP, 8 uM peptide; read-out: pIC50 value against full length AKT1 (converted)
From the text: Cloning of Full-Length Human (FL) AKT1:
Full-length human AKT1 gene was amplified by PCR from a plasmid containing myristylated-AKT1-ER (gift from Robert T. Abraham, Duke University under MTA, described in Klippel et al. in Molecular and Cellular Biology 1998 Volume 18 p. 5699) using the 5′ primer: SEQ. ID NO: 2 5′ […] 3′ and the 3′ primer: SEQ. ID NO: 3 […] 3′. The 5′ primer included a BamHI site and the 3′primer included an XhoI site for cloning purposes. The resultant PCR product was subcloned in pcDNA3 as a BamHI/XhoI fragment. A mutation in the sequence (TGC) coding for a Cysteine^25 was converted to the wild-type AKT1 sequence (CGC) coding for an Arginine^25 by site-directed mutagenesis using the QuikChange® Site Directed Mutagenesis Kit (Stratagene). The AKT1 mutagenic primer: SEQ. ID NO: 4 5′ […] and selection primer: SEQ. […] For expression/purification purposes, AKT1 was isolated as a BamHI/XhoI fragment and cloned into the BamHI/XhoI sites of pFastbacHTb (Invitrogen).
Expression was done using the BAC-to-BAC Baculovirus Expression System from Invitrogen (catalog #10359-016). […]
Compounds of the present invention were tested for AKT 1, 2, and 3 protein serine kinase inhibitory activity in substrate phosphorylation assays. […] Substrate phosphorylation was detected by the following procedure. […]

T1 sequence (P31749 whole entry): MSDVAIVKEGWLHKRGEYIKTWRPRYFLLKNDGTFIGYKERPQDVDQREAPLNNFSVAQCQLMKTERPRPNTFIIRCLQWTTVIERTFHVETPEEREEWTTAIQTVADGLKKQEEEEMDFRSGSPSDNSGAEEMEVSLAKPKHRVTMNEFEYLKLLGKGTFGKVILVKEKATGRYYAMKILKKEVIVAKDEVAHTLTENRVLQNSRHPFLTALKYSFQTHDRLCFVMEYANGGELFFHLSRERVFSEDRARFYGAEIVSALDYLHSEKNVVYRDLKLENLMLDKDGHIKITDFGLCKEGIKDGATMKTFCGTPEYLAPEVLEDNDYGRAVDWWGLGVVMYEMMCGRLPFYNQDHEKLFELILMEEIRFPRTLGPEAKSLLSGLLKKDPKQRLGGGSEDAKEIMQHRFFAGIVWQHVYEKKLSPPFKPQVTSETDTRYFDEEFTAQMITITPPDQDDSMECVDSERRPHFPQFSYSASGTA

- IC50: 0.01 µM
Structure (SMILES): Cn1nccc1-c1ccc(C(=O)NC(CN)Cc2ccccc2)cn1 (stereo not shown) [Example 2, N-[2-amino-1-(phenylmethyl)ethyl]-6-(1-methyl-1H-pyrazol-5-yl)-3-pyridinecarboxamide]
